#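 Results reflect a 48-hour exposure of cells in 96-well plates to compound at five concentrations. At the TGI there is no net growth.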
# Columns and labels:
# Assay in all cases: DTP human tumour cell line panel, 48 h
# CCRF-CEM leukemia = system: CCRF-CEM leukemia
# SNB-78 CNS = system: SNB-78 CNS
# A549 NSCLC = system: A549 NSCLC
# OVCAR-3 ovarian = system: OVCAR-3 ovarian
# LOX IMVI melanoma = system: LOX IMVI melanoma
# DLD-1 colon = system: DLD-1 colon
# SK-OV-3 ovarian = system: SK-OV-3 ovarian
# A498 renal = system: A498 renal
# HCT-15 colon = system: HCT-15 colon
# EKVX NSCLC = system: EKVX NSCLC
# RXF 393 renal = system: RXF 393 renal
# IGROV1 ovarian = system: IGROV1 ovarian
# K-562 leukemia = system: K-562 leukemia
# HCC-2998 colon = system: HCC-2998 colon
# SN12C renal = system: SN12C renal
# TK-10 renal = system: TK-10 renal
# KM12 colon = system: KM12 colon
# SW-620 colon = system: SW-620 colon
# RPMI-8226 leukemia = system: RPMI-8226 leukemia
# MOLT-4 leukemia = system: MOLT-4 leukemia
# MALME-3M melanoma = system: MALME-3M melanoma
# SK-MEL-5 melanoma = system: SK-MEL-5 melanoma
# OVCAR-4 ovarian = system: OVCAR-4 ovarian
# HL-60(TB) leukemia = system: HL-60(TB) leukemia
# HOP-92 NSCLC = system: HOP-92 NSCLC
# SNB-19 CNS = system: SNB-19 CNS
# M14 melanoma = system: M14 melanoma
# UACC-257 melanoma = system: UACC-257 melanoma
# CAKI-1 renal = system: CAKI-1 renal
# DMS 114 small cell lung = system: DMS 114 small cell lung
# SNB-75 CNS = system: SNB-75 CNS
# SF-295 CNS = system: SF-295 CNS
# SF-268 CNS = system: SF-268 CNS
# OVCAR-5 ovarian = system: OVCAR-5 ovarian
# SK-MEL-2 melanoma = system: SK-MEL-2 melanoma
# LXFL 529 NSCLC = system: LXFL 529 NSCLC
# NCI-H23 lung = system: NCI-H23 lung
# NCI-H460 lung = system: NCI-H460 lung
# NCI-H522 lung = system: NCI-H522 lung
# NCI-H226 lung = system: NCI-H226 lung
# UO-31 renal = system: UO-31 renal
# SK-MEL-28 melanoma = system: SK-MEL-28 melanoma
# M19-MEL melanoma = system: M19-MEL melanoma
# UACC-62 melanoma = system: UACC-62 melanoma
# DMS 273 small cell lung = system: DMS 273 small cell lung
# COLO 205 colon = system: COLO 205 colon
# ACHN renal = system: ACHN renal
# KM20L2 colon = system: KM20L2 colon
# HOP-62 NSCLC = system: HOP-62 NSCLC
# SF-539 CNS = system: SF-539 CNS
# 786-0 renal = system: 786-0 renal
# OVCAR-8 ovarian = system: OVCAR-8 ovarian
# HT29 colon = system: HT29 colon
# T-47D breast = system: T-47D breast
# DU-145 prostate = system: DU-145 prostate
# HCT-116 colon = system: HCT-116 colon
# MDA-MB-435 = system: MDA-MB-435
# HS 578T breast = system: HS 578T breast
# MDA-MB-231 breast = system: MDA-MB-231 breast
# PC-3 prostate = system: PC-3 prostate
# BT-549 breast = system: BT-549 breast
# MDA-N = system: MDA-N
# U251 CNS = system: U251 CNS
# MCF7 breast = system: MCF7 breast
# SR leukemia = system: SR leukemia
compound,measurement,setting,value
COc1ccc(C(=O)N2c3ccccc3N(C)n3cccc3C2CC(=O)O)cc1 (configuration not stated),TGI,CCRF-CEM leukemia,> 100 µM
same,TGI,SNB-78 CNS,> 100 µM
same,TGI,A549 NSCLC,> 100 µM
same,TGI,OVCAR-3 ovarian,> 100 µM
same,TGI,LOX IMVI melanoma,> 100 µM
same,TGI,DLD-1 colon,> 100 µM
same,TGI,SK-OV-3 ovarian,> 100 µM
same,TGI,A498 renal,> 100 µM
same,TGI,HCT-15 colon,> 100 µM
same,TGI,EKVX NSCLC,> 100 µM
same,TGI,RXF 393 renal,> 100 µM
same,TGI,IGROV1 ovarian,> 100 µM
same,TGI,K-562 leukemia,> 100 µM
same,TGI,HCC-2998 colon,> 100 µM
same,TGI,SN12C renal,> 100 µM
same,TGI,TK-10 renal,> 100 µM
same,TGI,KM12 colon,> 100 µM
same,TGI,SW-620 colon,> 100 µM
same,TGI,RPMI-8226 leukemia,> 100 µM
same,TGI,MOLT-4 leukemia,> 100 µM
same,TGI,MALME-3M melanoma,> 100 µM
same,TGI,SK-MEL-5 melanoma,> 100 µM
same,TGI,OVCAR-4 ovarian,> 100 µM
same,TGI,HL-60(TB) leukemia,> 100 µM
same,TGI,HOP-92 NSCLC,> 100 µM
same,TGI,SNB-19 CNS,> 100 µM
same,TGI,M14 melanoma,> 100 µM
same,TGI,UACC-257 melanoma,> 100 µM
same,TGI,CAKI-1 renal,> 100 µM
same,TGI,DMS 114 small cell lung,> 100 µM
same,TGI,SNB-75 CNS,> 100 µM
same,TGI,SF-295 CNS,> 100 µM
same,TGI,SF-268 CNS,> 100 µM
same,TGI,OVCAR-5 ovarian,> 100 µM
same,TGI,SK-MEL-2 melanoma,> 100 µM
same,TGI,LXFL 529 NSCLC,> 100 µM
same,TGI,NCI-H23 lung,> 100 µM
same,TGI,NCI-H460 lung,> 100 µM
same,TGI,NCI-H522 lung,> 100 µM
same,TGI,NCI-H226 lung,> 100 µM
same,TGI,UO-31 renal,> 100 µM
same,TGI,SK-MEL-28 melanoma,> 100 µM
same,TGI,M19-MEL melanoma,> 100 µM
same,TGI,UACC-62 melanoma,> 100 µM
same,TGI,DMS 273 small cell lung,> 100 µM
same,TGI,COLO 205 colon,> 100 µM
same,TGI,ACHN renal,> 100 µM
same,TGI,KM20L2 colon,> 100 µM
same,TGI,HOP-62 NSCLC,> 100 µM
same,TGI,SF-539 CNS,> 100 µM
same,TGI,786-0 renal,> 100 µM
same,TGI,OVCAR-8 ovarian,> 100 µM
same,TGI,HT29 colon,> 100 µM
CN(C)CCCNc1ccnc2cccc([N+](=O)[O-])c12,TGI,CCRF-CEM leukemia,> 100 µM
same,TGI,SNB-78 CNS,61.6 µM
same,TGI,A549 NSCLC,35.7 µM
same,TGI,OVCAR-3 ovarian,20.6 µM
same,TGI,LOX IMVI melanoma,35.8 µM
same,TGI,SK-OV-3 ovarian,22.9 µM
same,TGI,T-47D breast,80.8 µM
same,TGI,A498 renal,30.7 µM
same,TGI,DU-145 prostate,> 100 µM
same,TGI,HCT-15 colon,39.9 µM
same,TGI,EKVX NSCLC,19.9 µM
same,TGI,RXF 393 renal,61.1 µM
same,TGI,IGROV1 ovarian,28.3 µM
same,TGI,K-562 leukemia,> 100 µM
same,TGI,HCC-2998 colon,32.1 µM
same,TGI,SN12C renal,30.8 µM
same,TGI,TK-10 renal,36 µM
same,TGI,KM12 colon,27 µM
same,TGI,SW-620 colon,40.1 µM
same,TGI,HCT-116 colon,27.7 µM
same,TGI,RPMI-8226 leukemia,> 100 µM
same,TGI,MDA-MB-435,42.3 µM
same,TGI,HS 578T breast,97.1 µM
same,TGI,MOLT-4 leukemia,> 100 µM
same,TGI,MALME-3M melanoma,21.4 µM
same,TGI,SK-MEL-5 melanoma,24.4 µM
same,TGI,OVCAR-4 ovarian,20.4 µM
same,TGI,HL-60(TB) leukemia,> 100 µM
same,TGI,HOP-92 NSCLC,28.8 µM
same,TGI,MDA-MB-231 breast,39.6 µM
same,TGI,PC-3 prostate,30.3 µM
same,TGI,BT-549 breast,43.9 µM
same,TGI,SNB-19 CNS,56.6 µM
same,TGI,M14 melanoma,25.8 µM
same,TGI,MDA-N,47 µM
same,TGI,UACC-257 melanoma,30.7 µM
same,TGI,CAKI-1 renal,52.8 µM
same,TGI,SNB-75 CNS,73.4 µM
same,TGI,SF-295 CNS,36.5 µM
same,TGI,U251 CNS,> 70.7 µM
same,TGI,SF-268 CNS,47.7 µM
same,TGI,OVCAR-5 ovarian,44.1 µM
same,TGI,SK-MEL-2 melanoma,33.8 µM
same,TGI,NCI-H23 lung,23.5 µM
same,TGI,NCI-H460 lung,25.2 µM
same,TGI,NCI-H522 lung,18.2 µM
same,TGI,NCI-H226 lung,38.2 µM
same,TGI,UO-31 renal,38.8 µM
same,TGI,SK-MEL-28 melanoma,35.4 µM
same,TGI,MCF7 breast,28.2 µM
same,TGI,COLO 205 colon,15.6 µM
same,TGI,ACHN renal,24.3 µM
same,TGI,KM20L2 colon,25.9 µM
same,TGI,SR leukemia,> 100 µM
same,TGI,HOP-62 NSCLC,> 56.9 µM
same,TGI,SF-539 CNS,45.1 µM
same,TGI,786-0 renal,37.1 µM
same,TGI,OVCAR-8 ovarian,> 100 µM
same,TGI,HT29 colon,27 µM
